Measured values from US5665760A, “Lyophilized thioxanthenone antitumor agents” (priority 1995, dated 1997).
Values joined by “and” are separate entries in the source; they are usually repeats but may differ in a detail not shown here. Equal entries are not always repeated.

What was measured:
[1] = test system: colon adenocarcinoma #38; assay: antitumor activity in mice against colon adenocarcinoma #38; type: in vivo
Method: (§1) Representative examples of the invention were tested for antitumor activity in mice according to the following procedure:
(§2) The animals were pooled, implanted subcutaneously with 30 to 60 mg tumor fragments by 12-gauge trocar, and again pooled before unselective distribution to the various treatment and control groups. For early-stage treatment, chemotherapy was started within 1 to 5 days after tumor implantation while the number of cells was relatively small (10^7 to 10^8 cells). For advanced-stage treatment, chemotherapy was delayed until the tumor became relatively large (200 to 300 mg in size). A 300-mg tumor contains approximately 3×10^8 total cells. […] Tumors were measured with a caliper weekly (or twice weekly for the more rapidly growing tumors). Mice were sacrificed when their tumors reached 1500 mg (i.e., before they can cause the animal discomfort). Tumor weights were estimated from two-dimensional measurements.
(§3) The treatment and control groups were measured when the control group tumors reached approximately 700 to 1200 mg in size (Median of Group). The median tumor weight of each group was determined (including zeros). […] A T/C value <10% is considered to indicate highly significant antitumor activity.
(§4) The results are shown in Table I for pancreatic ductal adenocarcinoma #03 and in Table 2 for colon adenocarcinoma #38.

[2] = test system: Mammary 16/C/Adr; assay: antitumor activity in mice against Mammary 16/C/Adr (adriamycin resistant); type: in vivo; conditions: mouse, in vivo
Method: as §1
(§5) The animals were pooled, implanted subcutaneously with 30 to 60 mg tumor fragments by 12-gauge trocar, and again pooled before unselective distribution to the various treatment and control groups. For early-stage treatment, chemotherapy was started within 1 to 5 days after tumor implantation while the number of cells was relatively small (10^7 to 10^8 cells). For advanced-stage treatment, chemotherapy was delayed until the tumor became relatively large (200 to 300 mg in size). A 300-mg tumor contains approximately 3×10^8 total cells. Tumors within a given advanced-stage trial were within a 2.5-fold size range for 90% of the animals. Tumors were measured with a caliper weekly (or twice weekly for the more rapidly growing tumors). Mice were sacrificed when their tumors reached 1500 mg (i.e., before they can cause the animal discomfort). Tumor weights were estimated from two-dimensional measurements.
(§6) The treatment and control groups were measured when the control group tumors reached approximately 700 to 1200 mg in size (Median of Group). The median tumor weight of each group was determined (including zeros). The T/C value (weight of treated tumors over the weight of control tumors) in percent is an indication of antitumor effectiveness: A T/C equal to or less than 42% is considered significant antitumor activity by the Drug Evaluation Branch of the Division of Cancer Treatment (NCl). A T/C value <10% is considered to indicate highly significant antitumor activity. A body weight loss nadir (mean of group) of greater than 20% or greater than 20% drug-deaths is considered to indicate an excessively toxic dosage.

[3] = test system: Colon 51/A; assay: antitumor activity in mice against Colon 51/A; type: in vivo; conditions: p.o. days 3-7
Method: as §1, §2, §3

[4] = test system: pancreatic ductal adenocarcinoma #03; assay: antitumor activity in mice against pancreatic ductal adenocarcinoma #03 (Panc 03); type: in vivo
Method: as §1, §2, §3, §4

[5] = test system: Mammary 16/C; assay: antitumor activity in mice against Mammary 16/C; type: in vivo; conditions: i.v. days 1-4 (some changed to p.o.)
Method: as §1, §2, §3

[6] = test system: Human MX-1 Mammary; assay: antitumor activity in mice against Human MX-1 Mammary; type: in vivo; conditions: i.v. days 1-6 (some changed to p.o.)
Method: as §1, §5, §6

[7] = excipient alone; cited from earlier work
[8] = 155 mg/kg total, i.v. days 3-6 (some changed to p.o.)
[9] = 240 mg/kg total, i.v. days 3-6 (some changed to p.o.)
[10] = 420 mg/kg total, i.v. days 3-6 (some changed to p.o.)
[11] = 147 mg/kg total, i.v. days 3-7 (some changed to p.o.)
[12] = 220 mg/kg total, i.v. days 3-7 (some changed to p.o.)
[13] = 330 mg/kg total, i.v. days 3-7 (some changed to p.o.)

SMILES: CCN(CC)CCNc1ccc(CN(C)S(C)(=O)=O)c2sc3ccccc3c(=O)c12 [Example 8(a), N-[[1-[[2-(Diethylamino)ethyl)amino]-9-oxothioxanthen-yl]methyl]N-methylmethanesulfonamide]
- T/C Value ([1]; 112 mg/kg total, i.p. days 3-10): 3%
- T/C Value ([1]; 196 mg/kg total, i.p. days 3-10): 0%
- T/C Value ([1]; 275 mg/kg total, p.o. days 3-7): 0%
- T/C Value ([1]; 340 mg/kg total, i.p. days 3-10): 0%
- T/C Value ([1]; 550 mg/kg total, p.o. days 3-7): 0%
- Drug Deaths ([1]; mouse, in vivo): 0
- Drug Deaths [2]: 5/6 and 3/6 and 0/4
- T/C Value ([3]; 250 mg/kg total): 16%
- Wt. Loss at Nadir ([3]; 250 mg/kg total): -1.6 g/mouse
- T/C Value ([3]; 500 mg/kg total): 0%
- Wt. Loss at Nadir ([3]; 500 mg/kg total): -4.6 g/mouse

SMILES: CCN(CC)CCNc1ccc(CNC(=O)OC)c2sc3ccc(OC)cc3c(=O)c12 [Example 36]
- Drug Deaths [4, 8]: 0
- T/C Value [4, 8]: 0%
- Wt. Loss at Nadir [4, 8]: -0.4 g/mouse
- Drug Deaths [4, 9]: 0
- T/C Value [4, 9]: 0%
- Wt. Loss at Nadir [4, 9]: -0.4 g/mouse
- Drug Deaths [4, 10]: 3/5
- T/C Value [4, 10]: 0%
- Wt. Loss at Nadir [4, 10]: -5.6 g/mouse
- Weight Loss ([4]; Table 1, average body weight 25 g, total doses as in E1): 0.4 g
- Drug Deaths ([4]; Table 1, total doses as in E1): 0
- Drug Deaths [1, 11]: 0
- T/C Value [1, 11]: 0%
- Wt. Loss at Nadir [1, 11]: 0 g/mouse
- Drug Deaths [1, 12]: 0
- T/C Value [1, 12]: 0%
- Wt. Loss at Nadir [1, 12]: -0.8 g/mouse
- Drug Deaths [1, 13]: 0
- T/C Value [1, 13]: 0%
- Wt. Loss at Nadir [1, 13]: -3.2 g/mouse
- Drug Deaths ([5]; 161 mg/kg total): 0
- T/C Value ([5]; 161 mg/kg total): 9%
- Wt. Loss at Nadir ([5]; 161 mg/kg total): -0.4 g/mouse
- Drug Deaths ([5]; 242 mg/kg total): 1/5
- T/C Value ([5]; 242 mg/kg total): 8%
- Wt. Loss at Nadir ([5]; 242 mg/kg total): -1.2 g/mouse
- Drug Deaths ([5]; 363 mg/kg total): 2/5
- T/C Value ([5]; 363 mg/kg total): 2%
- Wt. Loss at Nadir ([5]; 363 mg/kg total): -2.4 g/mouse
- Drug Deaths ([6]; 132 mg/kg total): 0
- T/C Value ([6]; 132 mg/kg total): 27%
- Wt. Loss at Nadir ([6]; 132 mg/kg total): -0.8 g/mouse
- Drug Deaths ([6]; 297 mg/kg total): 0
- T/C Value ([6]; 297 mg/kg total): 39%
- Wt. Loss at Nadir ([6]; 297 mg/kg total): -2.4 g/mouse

SMILES: [Cl-].[Na+] [NaCl, sodium chloride]
- glass transition temperature of excipient [7]: -87 °C
